From ChEMBL document CHEMBL3217433, “Identification of pyrazolo-pyrimidinones as GHS-R1a antagonists and inverse agonists for the treatment of obesity” (Medchemcomm, 2013)
In brackets after ≈: the same amount, converted by molar mass.

Legend:
[1] = Lipophilicity, log D of the compound by HPLC analysis; format: physicochemical
[2] = Octanol-buffer partition coefficient, log D of the compound at pH 7.4 after 30 mins by shake-flask method; format: physicochemical
[3] = Aqueous solubility of the compound in phosphate buffer at pH 7.4 after 24 hrs by LC-UV analysis; format: physicochemical
[4] = Dissociation constant, pKa of the compound; format: physicochemical
[5] = Drug uptake in mouse brain at 20 mg/kg, po measured at 1 hr; format: ADME, organism-based; parameters: dose 20 mg/kg, route oral; conditions: read-out: Drug uptake
[6] = Plasma concentration in mouse at 20 mg/kg, po measured at 1 hr; format: ADME, organism-based; parameters: dose 20 mg/kg, route oral
[7] = Intrinsic clearance in human liver microsomes; format: ADME; conditions: read-out: CLH

| SMILES | logD at 0.5 h [2] | pKa [4] | microsomal CLint [7] | also measured |
| --- | --- | --- | --- | --- |
| Cc1ccccc1-c1nc2ccc(-c3ccc(Cl)cc3)cc2c(=O)n1C[C@H]1CCCN(C(C)C)C1 | > 4.3 | – | – | logD [1]: 5; solubility at 24 h [3]: 45 µM (≈ 21.9 µg/mL) |
| COCCN1CCC[C@@H](Cn2c(-c3ccccc3C)nc3cc(-c4ccc(Cl)cc4)sc3c2=O)C1 | > 4.3 | 8.5 | – | logD [1]: 5.6 |
| COCCN1CCC[C@@H](Cn2c(-c3ccccc3C)nc3cn(-c4ccc(Cl)cc4)nc3c2=O)C1 | 3.3 | 8.5 | – | logD [1]: 3.7 |
| COCCN1CCC[C@H](Cn2c(-c3cccnc3C)nc3cn(-c4cccc(OC)c4)nc3c2=O)C1 | 1.3 | 8.4 | – | – |
| COc1cccc(-n2cc3nc(-c4cccnc4C)n(C[C@H]4CCCN(C[C@H]5CCCO5)C4)c(=O)c3n2)c1 | 2 | – | 17 µL/min/mg | concentration at 1 h [5]: 240 nM; concentration at 1 h [6]: 1200 nM; solubility at 24 h [3]: > 1500 µM |
| COc1cccc(-n2cc3nc(CC(C)C)n(C[C@H]4CCCN(C[C@H]5CCCO5)C4)c(=O)c3n2)c1 | 3.1 | – | 60 µL/min/mg | – |
| Cc1ncccc1-c1nc2cn(-c3ccccc3)nc2c(=O)n1C[C@H]1CCCN(C[C@H]2CCCO2)C1 | 1.7 | – | 15 µL/min/mg | – |
| Cc1ncccc1-c1nc2cn(-c3cccc(OC(C)C)c3)nc2c(=O)n1C[C@H]1CCCN(C[C@H]2CCCO2)C1 | 2.7 | – | 51 µL/min/mg | – |
| Cc1ncccc1-c1nc2cn(-c3cccc(OC(F)F)c3)nc2c(=O)n1C[C@H]1CCCN(C[C@H]2CCCO2)C1 | 2.2 | – | 33 µL/min/mg | – |
| Cc1ccccc1-c1nc2cc(-c3ccc(Cl)cc3)sc2c(=O)n1CC1CCCN(C(C)C)C1 (racemic) | – | – | – | logD [1]: 4.8 |
| COc1ccc(-n2cc3nc(-c4ccccc4C)n(CC4CCCN(C(C)C)C4)c(=O)c3n2)cc1 (racemic) | 2.4 | 10 | – | – |
| Cc1ccccc1-c1nc2cn(-c3cccc(Cl)c3)nc2c(=O)n1CC1CCCN(C(C)C)C1 (racemic) | 3 | 9.8 | – | – |
| Cc1ccccc1-c1nc2cn(-c3cccc(C#N)c3)nc2c(=O)n1CC1CCCN(C(C)C)C1 (racemic) | 1.8 | 9.9 | – | – |
| COCCN1CCCC(Cn2c(-c3cccnc3C)nc3cn(-c4ccc(C#N)cc4)nc3c2=O)C1 (racemic) | 1.1 | 8.5 | – | – |

Second part, led by results:

| logD at 0.5 h [2] | pKa [4] | microsomal CLint [7] | SMILES | also measured |
| --- | --- | --- | --- | --- |
| 3.5 | 9.2 | – | COCCN1CCC[C@@H](Cn2c(-c3ccccc3C)nc3nc(-c4ccc(Cl)cc4)sc3c2=O)C1 | logD [1]: 5.1 |
| 1.3 | 9.7 | – | COc1cccc(-n2cc3nc(-c4cccnc4C)n(C[C@H]4CCCN(C(C)C)C4)c(=O)c3n2)c1 | solubility at 24 h [3]: > 2700 µM |
| 1.4 | – | – | COCCN1CCC[C@H](Cn2c(-c3cccnc3C)nc3cn(C4CCCCC4)nc3c2=O)C1 | – |
| 1.9 | – | 16 µL/min/mg | COc1cccc(-n2cc3nc(C)n(C[C@H]4CCCN(C[C@H]5CCCO5)C4)c(=O)c3n2)c1 | – |
| 1.9 | – | 21 µL/min/mg | COc1ccc(-n2cc3nc(-c4cccnc4C)n(C[C@H]4CCCN(C[C@H]5CCCO5)C4)c(=O)c3n2)cc1 | – |
| 2.5 | – | 30 µL/min/mg | CCOc1cccc(-n2cc3nc(-c4cccnc4C)n(C[C@H]4CCCN(C[C@H]5CCCO5)C4)c(=O)c3n2)c1 | – |
| 2.9 | – | 67 µL/min/mg | CCCOc1cccc(-n2cc3nc(-c4cccnc4C)n(C[C@H]4CCCN(C[C@H]5CCCO5)C4)c(=O)c3n2)c1 | – |
| – | 10 | – | Cc1ccccc1-c1nc2cn(-c3ccc(Cl)cc3)nc2c(=O)n1CC1CCCN(C(C)C)C1 (racemic) | logD [1]: 3.2 |
| 2.3 | 10 | – | Cc1ccccc1-c1nc2cn(-c3ccc(F)cc3)nc2c(=O)n1CC1CCCN(C(C)C)C1 (racemic) | – |
| – | 10 | – | Cc1ccccc1-c1nc2cn(-c3ccc(C#N)cc3)nc2c(=O)n1CC1CCCN(C(C)C)C1 (racemic) | – |
| 2.5 | 10 | – | COc1cccc(-n2cc3nc(-c4ccccc4C)n(CC4CCCN(C(C)C)C4)c(=O)c3n2)c1 (racemic) | – |
| 1.2 | 6.4 | – | Cc1ncccc1-c1nc2cn(-c3ccc(C#N)cc3)nc2c(=O)n1CC1CCCN(C2COC2)C1 (racemic) | – |
